Reference: ChEMBL document CHEMBL1201862, “PubChem BioAssay data set” (2004)
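Step 1: Grow cells in 96-well plates. Step 2: Expose to compound for 48 hours at 5 concentrations. Step 3: Interpolate endpoints linearly; if unreached, use highest concentration. At the GI50, growth is halved.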 Activity calls are given as the source filed them. Rule as the data show it: active = GI50 up to about 1.1 µM and inactive = higher.

Tests used:
Test in all cases: DTP human tumour cell line panel, 48 h
[1] = tested on: HCT-15
[2] = tested on: M14
[3] = tested on: UACC-62
[4] = tested on: SF-295
[5] = tested on: HOP-92
[6] = tested on: MCF7
[7] = tested on: A549
[8] = tested on: K562
[9] = tested on: MOLT-4
[10] = tested on: BT-549
[11] = tested on: NCI/ADR-RES
[12] = tested on: HT-29
[13] = tested on: SK-MEL-28
[14] = tested on: SR
[15] = tested on: HCT-116
[16] = tested on: MDA-MB-231
[17] = tested on: T47D
[18] = tested on: SN12C
[19] = tested on: NCI-H522

Measured: GI50

CN(C)Cc1cc(C(C)(C)C)cc(CN(C)C)c1O
inactive: [2] > 100 µM | [3] > 100 µM | [4] 44.6 µM | [5] > 100 µM | [6] 96.2 µM | [7] 76.6 µM | [8] > 100 µM | [9] 49.2 µM | [10] > 100 µM | [11] 34.2 µM | [12] 35.8 µM | [13] > 100 µM | [14] 54.8 µM | [15] 35.6 µM | [16] 92.5 µM | [17] > 100 µM | [18] 73.3 µM | [19] 43.5 µM
30.4 µM: [1]

CN(C)CCCc1c2ccccc2nc2ccc(Cl)cc12
inactive: [2] 14.2 µM | [3] 18 µM | [4] 16.2 µM | [5] 9.53 µM | [6] 6.76 µM | [7] 13.9 µM | [8] 19.1 µM | [9] 17.9 µM | [10] 18.6 µM | [11] 21.9 µM | [12] 13.2 µM | [13] 18.3 µM | [14] 18.5 µM | [15] 10.9 µM | [16] 16.6 µM | [17] 36.5 µM | [18] 10.3 µM | [19] 14.2 µM
30.5 µM: [1]

O=[N+]([O-])c1cccc2nc3ccccc3c(NCCCn3ccnc3[N+](=O)[O-])c12
0.000131 µM: [1]
active: [2] < 0.0001 µM | [3] 0.000959 µM | [4] 0.0117 µM | [5] 0.000187 µM | [6] < 0.0001 µM | [7] 0.000122 µM | [8] < 0.0001 µM | [9] 0.000336 µM | [10] < 0.0001 µM | [11] 0.0238 µM | [12] < 0.0001 µM | [13] 0.00189 µM | [14] 0.02 µM | [15] < 0.0001 µM | [16] 0.000168 µM | [17] 0.0407 µM | [18] 0.000282 µM | [19] 0.00046 µM

O=C(Nc1ccc(-c2cn3ccccc3n2)cc1)c1cc(Br)ccc1O
inactive: [2] > 100 µM | [3] > 100 µM | [4] > 100 µM | [5] > 100 µM | [6] > 100 µM | [7] > 100 µM | [8] > 100 µM | [9] > 100 µM | [10] > 100 µM | [11] > 100 µM | [12] > 100 µM | [13] > 100 µM | [14] > 100 µM | [15] > 100 µM | [16] > 100 µM | [17] > 100 µM | [18] > 100 µM | [19] > 100 µM
> 100 µM: [1]

O=C1C/C(=N/c2ccc(Cl)cc2)C(c2ccccc2)N1c1ccccc1 (stereo not drawn)
5.92 µM: [1]
inactive: [2] 5.9 µM | [3] 1.43 µM | [4] 8.61 µM | [5] 10.3 µM | [6] 10 µM | [7] 17.4 µM | [8] 1.32 µM | [9] 7.89 µM | [10] 5.28 µM | [11] 7.06 µM | [12] 5.62 µM | [13] 7.87 µM | [14] 5.43 µM | [15] 8.89 µM | [16] 7.21 µM | [17] 1.38 µM | [18] 23.9 µM | [19] 1.64 µM

CCOC(=O)c1ccc(-c2cccs2)n1C
inactive: [2] > 100 µM | [3] 58.5 µM | [4] > 95.3 µM | [5] > 43.1 µM | [6] > 96.4 µM | [7] > 100 µM | [8] 60.5 µM | [9] 39.4 µM | [10] > 83 µM | [11] > 87.5 µM | [12] 47.2 µM | [13] > 100 µM | [14] > 64.9 µM | [15] > 95.1 µM | [16] > 100 µM | [17] 19 µM | [18] > 100 µM | [19] 51.6 µM
51.5 µM: [1]

O=C(/C=C/c1ccco1)CC(=O)/C=C/c1ccco1
inactive: [2] 14.7 µM | [3] 13.5 µM | [4] > 10 µM | [5] 28.8 µM | [6] 8.32 µM | [7] 14.4 µM | [8] 9.89 µM | [9] 12 µM | [10] 18.2 µM | [11] 12.8 µM | [12] > 10 µM | [13] 12.2 µM | [14] 4.66 µM | [15] 11.4 µM | [16] > 10 µM | [17] 8.67 µM | [18] 10.1 µM | [19] 7.31 µM
12.5 µM: [1]
